Structures are written as SMILES.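 1) Cells in 96-well plates. 2) Compound, 48 h, 5 concentrations. 3) Linear interpolation between surrounding doses. 4) Unreached endpoint = highest concentration. At the GI50, growth is halved.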 Activity calls are given as the source filed them. No stated cut-off is given here; in the data, active = GI50 up to about 1.1 µM and inactive = higher.

We go through twelve compounds from ChEMBL document CHEMBL1201862, “PubChem BioAssay data set” (2004).

Among the test systems are OVCAR-3; HOP-62; M14; SR; CCRF-CEM; HL-60; ACHN; SK-OV-3; LXFL 529; HT-29; Malme-3M; A549; DMS-273; HCT-116; LOX IMVI; NCI-H23; SK-MEL-2; RXF 393.
Assay in all cases: NCI anticancer screen, dose series, 48 h

On to `CC1(C)CC(C)(C)CC(O)(C2(O)CC(C)(C)CC(C)(C)C2)C1`, for which the GI50 in the assay on OVCAR-3, in the assay with HOP-62, with M14, in the assay with SR, in the assay with CCRF-CEM and with HL-60 was > 100 µM (inactive) throughout. Further, the GI50 in the assay on ACHN, in the assay with SK-OV-3, in the assay with LXFL 529, with HT-29, in the assay with Malme-3M and with A549 was > 100 µM (inactive) in each case. Also, the GI50 in the assay with DMS-273, in the assay on HCT-116, with LOX IMVI and in the assay with NCI-H23 was > 100 µM (inactive) in each case.

Turning to `CCOC(=O)C(C)(C)Oc1ccc2c(=O)cc(-c3ccc(Cl)cc3)oc2c1`, the GI50 in the assay with OVCAR-3, in the assay with HOP-62, with M14, with SR, in the assay on SK-MEL-2 and in the assay on CCRF-CEM was > 100 µM (inactive) throughout. Also, the GI50 with HL-60, in the assay on RXF 393, in the assay with ACHN, in the assay on LXFL 529, in the assay on HT-29 and in the assay with Malme-3M was > 100 µM (inactive) in each case. Also, the GI50 in the assay on A549, with DMS-273, with HCT-116, in the assay on LOX IMVI and in the assay on NCI-H23 was > 100 µM (inactive) throughout.

For `COc1ccccc1NC(=O)C(CC(C(=O)Nc1ccccc1OC)/C(C)=N/Nc1ccc([N+](=O)[O-])cc1[N+](=O)[O-])/C(C)=N/Nc1ccc([N+](=O)[O-])cc1[N+](=O)[O-]` (stereo not drawn), the GI50 was 77.4 µM (inactive) in the assay with OVCAR-3; > 95.5 µM (inactive) in the assay on HOP-62; 40.4 µM (inactive) with M14; 0.916 µM (active) with SR; > 100 µM (inactive) in the assay with SK-MEL-2; 63.5 µM (inactive) in the assay on CCRF-CEM. Further, the GI50 in the assay on HL-60 is 41.5 µM (inactive); in the assay on ACHN it was > 86.1 µM (inactive); with SK-OV-3 it was > 92.7 µM (inactive); in the assay on LXFL 529, 32.4 µM (inactive); in the assay with HT-29, > 100 µM (inactive); in the assay on Malme-3M it was > 100 µM (inactive). The GI50 in the assay on A549 is > 65.5 µM (inactive); with DMS-273, 56 µM (inactive); in the assay with HCT-116, > 59.3 µM (inactive); with LOX IMVI it was 40.2 µM (inactive); with NCI-H23 it was > 83.8 µM (inactive).

Consider `NCC(=O)OCN1C(=O)C2C3C=CC(C2C1=O)C1C2C(=O)N(COC(=O)CN)C(=O)C2C31` (stereo not drawn), for which the GI50 is 35 µM (inactive) in the assay with OVCAR-3; 18.9 µM (inactive) in the assay on M14; 21.4 µM (inactive) in the assay with SK-MEL-2; 21 µM (inactive) with CCRF-CEM; 18.2 µM (inactive) in the assay on HL-60; 24 µM (inactive) in the assay on RXF 393. For the same compound, the GI50 with ACHN was 24.5 µM (inactive); with SK-OV-3, 60.8 µM (inactive); in the assay with LXFL 529, 36.2 µM (inactive); with HT-29 it was 36.6 µM (inactive); in the assay with A549 it was 25.5 µM (inactive); in the assay with DMS-273, 19.8 µM (inactive). For the same compound, the GI50 with HCT-116 was 14.6 µM (inactive); with LOX IMVI, 19.1 µM (inactive); in the assay with NCI-H23, 29.2 µM (inactive).

`O=S(=O)(c1ccccc1)C(CN1CCCCC1)S(=O)(=O)c1ccccc1`: the GI50 with OVCAR-3, in the assay with HOP-62, with M14, in the assay with SR, in the assay on SK-MEL-2 and in the assay with CCRF-CEM was > 100 µM (inactive) throughout. Moreover, the GI50 in the assay with HL-60, in the assay with RXF 393, with ACHN, with SK-OV-3, with LXFL 529 and in the assay with HT-29 was > 100 µM (inactive) throughout. Further, the GI50 in the assay with Malme-3M, in the assay on A549, with DMS-273, in the assay on LOX IMVI and in the assay on NCI-H23 was > 100 µM (inactive) in each case.

`COc1ccc(NC(=O)C(C)Oc2ccc(OCC3CCCCC3)cc2)cc1` (stereo not drawn): the GI50 in the assay with OVCAR-3 was 62.5 µM (inactive); in the assay on M14 it was 70.3 µM (inactive); with SK-MEL-2, 81.1 µM (inactive); in the assay with CCRF-CEM it was 71.1 µM (inactive); with HL-60, 42.2 µM (inactive); in the assay with RXF 393, > 100 µM (inactive). Also, the GI50 was 44.5 µM (inactive) in the assay on ACHN; > 100 µM (inactive) with SK-OV-3; 51.4 µM (inactive) in the assay on LXFL 529; > 100 µM (inactive) in the assay on HT-29; 34.2 µM (inactive) in the assay with Malme-3M; 54.1 µM (inactive) in the assay with A549. For the same compound, the GI50 is 42.3 µM (inactive) with DMS-273, > 100 µM (inactive) with HCT-116, 30.7 µM (inactive) in the assay with LOX IMVI and 34.5 µM (inactive) with NCI-H23.

On to `NC(=S)N/N=C(/CC(=O)c1ccccc1)C(=O)Nc1ccc(Cl)c(Cl)c1`, for which the GI50 was 37.3 µM (inactive) in the assay with OVCAR-3; 60.4 µM (inactive) in the assay on HOP-62; > 100 µM (inactive) with M14; 78.2 µM (inactive) in the assay on SK-MEL-2; 28.6 µM (inactive) in the assay on CCRF-CEM; 23.3 µM (inactive) in the assay with HL-60. The GI50 in the assay on RXF 393 was > 100 µM (inactive); in the assay on ACHN, 75.2 µM (inactive); in the assay with SK-OV-3, > 100 µM (inactive); in the assay with LXFL 529 it was 83.4 µM (inactive); with HT-29, > 100 µM (inactive); in the assay on Malme-3M, > 100 µM (inactive). Also, the GI50 in the assay on A549 is > 100 µM (inactive); with DMS-273, 76.6 µM (inactive); in the assay with HCT-116 it was > 100 µM (inactive); in the assay on LOX IMVI, 74.3 µM (inactive); in the assay on NCI-H23 it was > 100 µM (inactive).

In the case of `CC1=C(c2cc(C(=O)Nc3cccc(C(F)(F)F)c3)ncn2)Sc2ccccc2N1`, the GI50 in the assay on OVCAR-3, in the assay with HOP-62, in the assay with M14, with SR, in the assay with SK-MEL-2 and with CCRF-CEM was > 100 µM (inactive) in each case. Further, the GI50 with HL-60, with ACHN, in the assay on SK-OV-3, in the assay with LXFL 529, in the assay with HT-29 and with Malme-3M was > 100 µM (inactive) in each case. Moreover, the GI50 in the assay on A549, in the assay on DMS-273, in the assay on HCT-116 and in the assay with NCI-H23 was > 100 µM (inactive) each time.

In the case of `C=CCNC(=O)N(CCCCC(NC(C)=O)C(=O)NCc1ccccc1)Cc1ccccc1` (stereo not drawn), the GI50 with OVCAR-3, in the assay on HOP-62, with M14, with SK-MEL-2, with CCRF-CEM and in the assay on HL-60 was > 100 µM (inactive) throughout. The GI50 with RXF 393, in the assay on ACHN, in the assay on SK-OV-3, in the assay on LXFL 529, in the assay on HT-29 and with Malme-3M was > 100 µM (inactive) in each case. Moreover, the GI50 in the assay on A549, in the assay on DMS-273, with LOX IMVI and in the assay on NCI-H23 was > 100 µM (inactive) throughout.

Consider `CCCCCCCOc1ccc(/C=C\c2cc[n+](CCCCCCCC[n+]3ccc(/C=C\c4ccc(OCCCCCCC)cc4)cc3)cc2)cc1`, for which the GI50 in the assay with OVCAR-3 was 19.1 µM (inactive); in the assay with HOP-62 it was 26.6 µM (inactive); in the assay on M14 it was 17.5 µM (inactive); in the assay with SK-MEL-2, 17.6 µM (inactive); in the assay with CCRF-CEM it was > 100 µM (inactive); in the assay with HL-60 it was 4.3 µM (inactive). Also, the GI50 in the assay with RXF 393 was > 100 µM (inactive); in the assay with ACHN it was 38.2 µM (inactive); in the assay with SK-OV-3, 28.1 µM (inactive); with LXFL 529, 13.3 µM (inactive); in the assay with HT-29, 13.8 µM (inactive); in the assay with Malme-3M, 18.7 µM (inactive). Also, the GI50 in the assay with A549 is 8.55 µM (inactive); in the assay on DMS-273, 4.3 µM (inactive); with HCT-116, 13.6 µM (inactive); in the assay with LOX IMVI, 25 µM (inactive); in the assay on NCI-H23, 28.2 µM (inactive).

With `O=C(O)[C@@H]1CCCC[C@@H]1C(=O)N(C1CCCCC1)C1CCCCC1`, the GI50 in the assay on OVCAR-3, in the assay on HOP-62, in the assay with M14, in the assay on SR, with SK-MEL-2 and in the assay on CCRF-CEM was > 100 µM (inactive) each time. The GI50 in the assay on HL-60, in the assay with ACHN, in the assay on SK-OV-3, in the assay on LXFL 529, in the assay on HT-29 and in the assay on Malme-3M was > 100 µM (inactive) in each case. For the same compound, the GI50 in the assay on A549, in the assay with DMS-273, in the assay with HCT-116, with LOX IMVI and in the assay on NCI-H23 was > 100 µM (inactive) throughout.

In the case of `CCc1oc2ccc(OC)c3c2c1C=CC=C3`, the GI50 in the assay with OVCAR-3, with HOP-62, in the assay with M14, in the assay on SR, in the assay with SK-MEL-2 and in the assay on CCRF-CEM was > 100 µM (inactive) in each case. In addition, the GI50 in the assay on HL-60 is 87.7 µM (inactive); in the assay on RXF 393 it was 54.1 µM (inactive); in the assay with ACHN, > 100 µM (inactive); in the assay with SK-OV-3, > 100 µM (inactive); in the assay with LXFL 529, > 100 µM (inactive); in the assay on HT-29, 77.3 µM (inactive). In addition, the GI50 with Malme-3M, in the assay with A549, in the assay with DMS-273, in the assay on LOX IMVI and in the assay on NCI-H23 was > 100 µM (inactive) throughout.
